Assay results reported in PubChem BioAssay (NCI).
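Compound exposure: 48 hours, 5 concentrations, 96-well plates. At the GI50, growth is halved. TGI is the concentration that stops growth completely.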

How the values were obtained:
Assay in all cases: inhibition of tumour cell growth, NCI panel, 48 h; in the data active = GI50 below about 0.43 µM; inactive = the rest
UO-31 renal = test system: UO-31 renal
MOLT-4 leukemia = test system: MOLT-4 leukemia
NCI-H460 lung = test system: NCI-H460 lung
MALME-3M melanoma = test system: MALME-3M melanoma
U251 CNS = test system: U251 CNS
SF-539 CNS = test system: SF-539 CNS
HL-60(TB) leukemia = test system: HL-60(TB) leukemia
A498 renal = test system: A498 renal
CCRF-CEM leukemia = test system: CCRF-CEM leukemia
KM12 colon = test system: KM12 colon
COLO 205 colon = test system: COLO 205 colon
SNB-75 CNS = test system: SNB-75 CNS
HCT-15 colon = test system: HCT-15 colon
EKVX NSCLC = test system: EKVX NSCLC
IGROV1 ovarian = test system: IGROV1 ovarian
SF-295 CNS = test system: SF-295 CNS
RPMI-8226 leukemia = test system: RPMI-8226 leukemia
SK-MEL-2 melanoma = test system: SK-MEL-2 melanoma
HCC-2998 colon = test system: HCC-2998 colon
SF-268 CNS = test system: SF-268 CNS
OVCAR-5 ovarian = test system: OVCAR-5 ovarian
SW-620 colon = test system: SW-620 colon
NCI-H522 lung = test system: NCI-H522 lung
SN12C renal = test system: SN12C renal
ACHN renal = test system: ACHN renal
A549 NSCLC = test system: A549 NSCLC
KM20L2 colon = test system: KM20L2 colon
TK-10 renal = test system: TK-10 renal
UACC-62 melanoma = test system: UACC-62 melanoma
LOX IMVI melanoma = test system: LOX IMVI melanoma
SNB-19 CNS = test system: SNB-19 CNS
HOP-62 NSCLC = test system: HOP-62 NSCLC
NCI-H23 lung = test system: NCI-H23 lung
SNB-78 CNS = test system: SNB-78 CNS
HCT-116 colon = test system: HCT-116 colon
OVCAR-3 ovarian = test system: OVCAR-3 ovarian
UACC-257 melanoma = test system: UACC-257 melanoma
K-562 leukemia = test system: K-562 leukemia
SK-MEL-5 melanoma = test system: SK-MEL-5 melanoma
OVCAR-8 ovarian = test system: OVCAR-8 ovarian
OVCAR-4 ovarian = test system: OVCAR-4 ovarian
786-0 renal = test system: 786-0 renal
SK-OV-3 ovarian = test system: SK-OV-3 ovarian
HT29 colon = test system: HT29 colon
HOP-92 NSCLC = test system: HOP-92 NSCLC
M14 melanoma = test system: M14 melanoma
SK-MEL-28 melanoma = test system: SK-MEL-28 melanoma
DMS 273 small cell lung = test system: DMS 273 small cell lung
DLD-1 colon = test system: DLD-1 colon
LXFL 529 NSCLC = test system: LXFL 529 NSCLC

N.N.N.N.O=C([O-])C(Cl)Cl.O=C([O-])C(Cl)Cl.[Co+3].[O-][Cl+3]([O-])([O-])[O-]
inactive: GI50 (UO-31 renal) > 100 µM | GI50 (MOLT-4 leukemia) > 100 µM | GI50 (NCI-H460 lung) > 100 µM | GI50 (MALME-3M melanoma) > 100 µM | GI50 (U251 CNS) > 100 µM | GI50 (SF-539 CNS) > 100 µM | GI50 (HL-60(TB) leukemia) > 100 µM | GI50 (A498 renal) > 100 µM | GI50 (CCRF-CEM leukemia) > 100 µM | GI50 (KM12 colon) > 100 µM | GI50 (COLO 205 colon) > 100 µM | GI50 (SNB-75 CNS) > 100 µM | GI50 (HCT-15 colon) > 100 µM | GI50 (EKVX NSCLC) > 100 µM | GI50 (IGROV1 ovarian) > 100 µM | GI50 (SF-295 CNS) > 100 µM | GI50 (RPMI-8226 leukemia) > 100 µM | GI50 (SK-MEL-2 melanoma) > 100 µM | GI50 (HCC-2998 colon) > 100 µM | GI50 (SF-268 CNS) > 100 µM | GI50 (OVCAR-5 ovarian) > 100 µM | GI50 (SW-620 colon) > 100 µM | GI50 (NCI-H522 lung) > 100 µM | GI50 (SN12C renal) > 100 µM | GI50 (ACHN renal) > 100 µM | GI50 (A549 NSCLC) > 100 µM | GI50 (KM20L2 colon) > 100 µM | GI50 (TK-10 renal) > 100 µM | GI50 (UACC-62 melanoma) > 100 µM | GI50 (LOX IMVI melanoma) > 100 µM | GI50 (SNB-19 CNS) > 100 µM | GI50 (HOP-62 NSCLC) > 100 µM | GI50 (NCI-H23 lung) > 100 µM | GI50 (SNB-78 CNS) > 100 µM | GI50 (HCT-116 colon) > 100 µM | GI50 (OVCAR-3 ovarian) > 100 µM | GI50 (UACC-257 melanoma) > 100 µM | GI50 (K-562 leukemia) > 100 µM | GI50 (SK-MEL-5 melanoma) > 100 µM | GI50 (OVCAR-8 ovarian) > 100 µM | GI50 (OVCAR-4 ovarian) > 100 µM | GI50 (786-0 renal) > 100 µM | GI50 (SK-OV-3 ovarian) > 100 µM | GI50 (HT29 colon) > 100 µM | GI50 (HOP-92 NSCLC) > 100 µM | GI50 (M14 melanoma) > 100 µM | GI50 (SK-MEL-28 melanoma) > 100 µM | GI50 (DMS 273 small cell lung) > 100 µM | GI50 (DLD-1 colon) > 100 µM | GI50 (LXFL 529 NSCLC) > 100 µM
> 100 µM: TGI (UO-31 renal) | TGI (MOLT-4 leukemia) | TGI (NCI-H460 lung) | TGI (MALME-3M melanoma) | TGI (U251 CNS) | TGI (SF-539 CNS) | TGI (HL-60(TB) leukemia) | TGI (A498 renal) | TGI (CCRF-CEM leukemia) | TGI (KM12 colon) | TGI (COLO 205 colon) | TGI (SNB-75 CNS) | TGI (HCT-15 colon) | TGI (EKVX NSCLC) | TGI (IGROV1 ovarian) | TGI (SF-295 CNS) | TGI (RPMI-8226 leukemia) | TGI (SK-MEL-2 melanoma) | TGI (HCC-2998 colon) | TGI (SF-268 CNS) | TGI (OVCAR-5 ovarian) | TGI (SW-620 colon) | TGI (NCI-H522 lung) | TGI (SN12C renal) | TGI (ACHN renal) | TGI (A549 NSCLC) | TGI (KM20L2 colon) | TGI (TK-10 renal) | TGI (UACC-62 melanoma) | TGI (LOX IMVI melanoma) | TGI (SNB-19 CNS) | TGI (HOP-62 NSCLC) | TGI (NCI-H23 lung) | TGI (SNB-78 CNS) | TGI (HCT-116 colon) | TGI (OVCAR-3 ovarian) | TGI (UACC-257 melanoma) | TGI (K-562 leukemia) | TGI (SK-MEL-5 melanoma) | TGI (OVCAR-8 ovarian) | TGI (OVCAR-4 ovarian) | TGI (786-0 renal) | TGI (SK-OV-3 ovarian) | TGI (HT29 colon) | TGI (HOP-92 NSCLC) | TGI (M14 melanoma) | TGI (SK-MEL-28 melanoma) | TGI (DMS 273 small cell lung) | TGI (DLD-1 colon) | TGI (LXFL 529 NSCLC)
